Test [1] has as its target GTPase KRas/RAF1 (Homo sapiens, UniProt P01116). In words: Inhibition of biotinylated wild type KRAS (1 to 169 residues) (unknown origin)/CRAF RBD (unknown origin) protein-protein interaction preincubated for 60 mins followed by SOS1 and GTPgs addition measured after 60 mins by FRET assay.
Test [2] can be described thus: Inhibition of biotinylated KRAS G12D mutant (unknown origin)/CRAF RBD (unknown origin) protein-protein interaction preincubated for 60 mins followed by SOS1 and GTPgs addition measured after 60 mins by FRET assay. Also noted: species or system Homo sapiens.

Molecules are shown by their SMILES.

On to `Cc1ncsc1-c1ccc([C@H](C)NC(=O)[C@H]2C[C@@H](O)CN2C(=O)[C@@H](NC(=O)CCOCCCN2CCC[C@H]2COc2nc(N3CC4CCC(C3)N4)c3cc(Cl)c(-c4ccc(F)c5sc(N)c(C#N)c45)c(F)c3n2)C(C)(C)C)cc1`, for which the results for the IC50 in test [1] and in test [2] were 25.9 nM and 8.18 nM, respectively.

With `Cc1ncsc1-c1ccc([C@H](C)NC(=O)[C@H]2C[C@@H](O)CN2C(=O)[C@@H](NC(=O)CCOCCCN2CCC[C@H]2COc2nc(N3CC4CCC(C3)N4)c3cnc(-c4cc(O)cc5cccc(F)c45)c(F)c3n2)C(C)(C)C)cc1`, the concentration for half-maximal inhibition (IC50) worked out at 158 nM in test [1] and 8.21 nM in test [2].

With `C[C@H](NC(=O)[C@H]1C[C@@H](O)CN1C(=O)[C@@H](NC(=O)CCOCCCN1CCC[C@H]1COc1nc(N2CC3CCC(C2)N3)c2cc(Cl)c(-c3ccc(F)c4sc(N)c(C#N)c34)c(F)c2n1)C(C)(C)C)c1ccc(-c2c(F)cccc2F)cc1`, the IC50 in test [1] was determined as 77.7 nM; in test [2], 7.67 nM.

Consider `C#Cc1c(F)ccc2cc(O)cc(-c3ncc4c(N5CC6CCC(C5)N6)nc(OC[C@@H]5CCCN5CCCOCCC(=O)N[C@H](C(=O)N5C[C@H](O)C[C@@H]5C(=O)N[C@@H](C)c5ccc(-c6c(F)cccc6F)cc5)C(C)(C)C)nc4c3F)c12`, for which the values for the IC50 in test [1] and in test [2] were 41.9 nM and 9.4 nM, respectively.

Turning to `C#Cc1c(F)ccc2cc(O)cc(-c3ncc4c(N5CC6CCC(C5)N6)nc(OC[C@@H]5CCCN5CCCOCCC(=O)N[C@H](C(=O)N5C[C@H](O)C[C@@H]5C(=O)N[C@@H](C)c5ccc(-c6ccncc6C#N)cc5)C(C)(C)C)nc4c3F)c12`, the IC50 in test [1] came out at 24.2 nM; in test [2], 7.93 nM.

With `C[C@H](NC(=O)[C@H]1C[C@@H](O)CN1C(=O)[C@@H](NC(=O)CCOCCCN1CCC[C@H]1COc1nc(N2CC3CCC(C2)N3)c2cc(C(F)(F)F)c(-c3ccc(F)c4sc(N)c(C#N)c34)c(F)c2n1)C(C)(C)C)c1ccc(-c2c(F)cccc2F)cc1`, the values for the IC50 in test [1] and in test [2] were 26.9 nM and 8.52 nM, respectively.

For orientation: IC50 means the concentration at which inhibition is half-maximal.

The record behind these values is ChEMBL document CHEMBL6071198, “Advances in Cancer Treatment and Monitoring: Insights from KRAS Inhibitors and Germline Epitope Burden Monitoring” (ACS Med Chem Lett, 2024).
